According to PubChem BioAssay AID330 (DTP/NCI, 2004):
“And” between values parts separate entries of the source, which are not always exact repeats. Identical values can stand only once. Inconclusive results and toxic doses are left out. How the source made its calls: active means survival T/C of 150% or more; inactive means T/C below 125% in these data. Numbered stars: 1 amine (or outer) side, 2 acyl side, 3 side chain; on linkers, the order of the positions; unused ones are H or OH. Bridge positions count the residues as written; N and C are the ends. Square brackets hold non-standard residues; d marks the D form. Peptide text beside a SMILES is read from it. I, II: the chains in the order shown. * marks the point of attachment. ξ: configuration not given here. Quinaldoyl(3-OH,6-OMe) = COc1ccc2nc(C(=O)*)c(O)cc2c1; X8 = CC(=O)OC1CC=NN([*:1])C1C(=O)[*:2]; ξNMeVal(3-OH) = CNC(C(=O)O)C(C)(C)O; X20 = O=C(C1CCCNN1[*:1])[*:2]; Sar = CNCC(=O)O

Test system: P388 leukemia ip, CD2F1 mice, survival T/C
Assay: NCI In Vivo Anticancer Drug Screen. Data for tumor model P388 Leukemia (intraperitoneal) in CD2F1 (CDF1) mice
Details: endpoint: median survival time, higher = longer survival
Procedure, shortened: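 Mice carrying the transplanted tumor received test compound or vehicle. Survival was recorded in each group, and the value is the treated-group measurement divided by that of the vehicle-treated control group.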

[1] = dose: 25.0 mg/kg/injection, schedule: Q04DX002 (ip), vehicle: Klucel (hydroxypropylcellulose) (HPC)
[2] = dose: 50.0 mg/kg/injection, schedule: Q04DX002 (ip), vehicle: Klucel (hydroxypropylcellulose) (HPC)
[3] = dose: 50.0 mg/kg/injection, schedule: Q01DX009 (ip), vehicle: saline with Tween-80
[4] = dose: 100.0 mg/kg/injection, schedule: Q01DX009 (ip), vehicle: saline with Tween-80
[5] = dose: 50.0 mg/kg/injection, schedule: Q01DX009 (ip), vehicle: Klucel (hydroxypropylcellulose) (HPC)
[6] = dose: 50.0 mg/kg/injection, schedule: Q01DX005 (ip), vehicle: Klucel (hydroxypropylcellulose) (HPC)
[7] = dose: 100.0 mg/kg/injection, schedule: Q01DX005 (ip), vehicle: Klucel (hydroxypropylcellulose) (HPC)
[8] = dose: 200.0 mg/kg/injection, schedule: Q01DX005 (ip), vehicle: Klucel (hydroxypropylcellulose) (HPC)
[9] = dose: 25.0 mg/kg/injection, schedule: Q01DX009 (ip), vehicle: saline with Tween-80

Measured: T/C

COc1ccc2nc(C(=O)NC3COC(=O)C(C(C)(C)O)N(C)C(=O)CN(C)C(=O)CNC(=O)C4CCCNN4C(=O)C(NC(=O)c4nc5ccc(OC)cc5cc4O)COC(=O)C(C(C)(C)O)N(C)C(=O)CN(C)C(=O)CNC(=O)C4C(OC(C)=O)CC=NN4C3=O)c(O)cc2c1 (stereo not drawn) (I: {Quinaldoyl(3-OH,6-OMe)}-S[X8]G[Sar][ξNMeVal(3-OH)] / II: {Quinaldoyl(3-OH,6-OMe)}-S[X20]G[Sar][ξNMeVal(3-OH)]; ester I:1-II:C, I:C-II:1; configuration not given here)
inactive: dose: 20.0 micrograms/kg/injection, schedule: Q01DX005 (ip), vehicle: DMSO 97 % of control | dose: 40.0 micrograms/kg/injection, schedule: Q01DX005 (ip), vehicle: DMSO 87 % of control

CCC(=O)C[N+]12CCN(CC1)CC2
inactive: [1] 105 % of control | [2] 104 % of control

C#CCOC1CC(C)(O)Cc2cc3c(c(O)c21)C(=O)c1c(O)cc2c(c1C3=O)OC1OC2(C)C(O)C(N(C)C)C1O (stereo not drawn)
inactive: dose: 20.0 mg/kg/injection, schedule: Q01DX009 (ip), vehicle: other 89 % of control

CC1C(N)CC2CC1C2(C)C (stereo not drawn)
inactive: [3] 104 % of control | [4] 112 % of control

C[C@]12CCCC[C@@H]1CC[C@@H]1[C@@H]2CC[C@]2(C)[C@@H](N(CCO)CCCO)CC[C@@H]12
inactive: dose: 12.5 mg/kg/injection, schedule: Q01DX009 (ip), vehicle: Klucel (hydroxypropylcellulose) (HPC) 93 % of control | dose: 25.0 mg/kg/injection, schedule: Q01DX009 (ip), vehicle: Klucel (hydroxypropylcellulose) (HPC) 99 % of control | [5] 88 % of control

COC(=O)C1(CC(=O)c2ccc3ccccc3c2)NC(=S)NC(=O)C1C#N (stereo not drawn)
inactive: dose: 60.0 mg/kg/injection, schedule: Q01DX005 (ip), vehicle: saline with Tween-80 95 % of control | dose: 120.0 mg/kg/injection, schedule: Q01DX005 (ip), vehicle: saline with Tween-80 95 % of control | dose: 240.0 mg/kg/injection, schedule: Q01DX005 (ip), vehicle: saline with Tween-80 91 % of control

Cc1cc(C)c(C2=NO[C@H]3c4ccccc4OC[C@@H]23)c(C)c1
inactive: [6] 105 % of control | [7] 96 % of control | [8] 89 % of control

CCCC(=O)Oc1ccc[nH]c1=O
inactive: dose: 3.13 mg/kg/injection, schedule: Q01DX009 (ip), vehicle: distilled water + Tween-80 100 % of control | dose: 3.13 mg/kg/injection, schedule: Q01DX009 (ip), vehicle: water 92 % of control | dose: 6.25 mg/kg/injection, schedule: Q01DX009 (ip), vehicle: distilled water + Tween-80 107 % of control | dose: 6.25 mg/kg/injection, schedule: Q01DX009 (ip), vehicle: water 92 % of control | dose: 12.5 mg/kg/injection, schedule: Q01DX009 (ip), vehicle: distilled water + Tween-80 106 % of control | dose: 12.5 mg/kg/injection, schedule: Q01DX009 (ip), vehicle: water 92 % of control | dose: 25.0 mg/kg/injection, schedule: Q01DX009 (ip), vehicle: distilled water + Tween-80 100 % of control | dose: 25.0 mg/kg/injection, schedule: Q01DX009 (ip), vehicle: water 99 % of control and 107 % of control | dose: 50.0 mg/kg/injection, schedule: Q01DX009 (ip), vehicle: distilled water + Tween-80 109 % of control | dose: 50.0 mg/kg/injection, schedule: Q01DX009 (ip), vehicle: water 114 % of control | dose: 100.0 mg/kg/injection, schedule: Q01DX009 (ip), vehicle: water 114 % of control | dose: 200.0 mg/kg/injection, schedule: Q01DX009 (ip), vehicle: water 115 % of control

c1cc2[nH]c3ccncc3c2cn1
inactive: [9] 102 % of control | [3] 105 % of control

O=C(C[n+]1ccccc1)c1ccccc1
inactive: dose: 12.5 mg/kg/injection, schedule: Q01DX009 (ip), vehicle: saline 105 % of control | dose: 25.0 mg/kg/injection, schedule: Q01DX009 (ip), vehicle: saline 104 % of control | dose: 50.0 mg/kg/injection, schedule: Q01DX009 (ip), vehicle: saline 96 % of control

NC(Cc1ccccc1)C(=O)NCC(=O)NC(Cc1ccccc1)C(=O)NCC(=O)O (stereo not drawn) (H-FGFG-OH; configuration not given here)
inactive: [6] 96 % of control | [7] 98 % of control | [8] 102 % of control

C=CCOC(=O)CCCC1=NC2=CC=CC3=NC(C)=NC(=N1)N23
inactive: dose: 50.0 mg/kg/injection, schedule: Q04DX003 (ip), vehicle: saline with Tween-80 105 % of control | dose: 100.0 mg/kg/injection, schedule: Q04DX003 (ip), vehicle: saline with Tween-80 99 % of control | dose: 200.0 mg/kg/injection, schedule: Q04DX003 (ip), vehicle: saline with Tween-80 91 % of control

NCCN1C(=O)c2ccccc2C1(O)c1ccc(Cl)cc1 (stereo not drawn)
inactive: [5] 102 % of control | dose: 100.0 mg/kg/injection, schedule: Q01DX009 (ip), vehicle: Klucel (hydroxypropylcellulose) (HPC) 97 % of control | dose: 200.0 mg/kg/injection, schedule: Q01DX009 (ip), vehicle: Klucel (hydroxypropylcellulose) (HPC) 98 % of control

CN(C)C1=C(N(C)C)C1N(C)C
inactive: dose: 10.0 mg/kg/injection, schedule: Q04DX003 (ip), vehicle: saline 100 % of control | dose: 20.0 mg/kg/injection, schedule: Q04DX003 (ip), vehicle: saline 97 % of control | dose: 40.0 mg/kg/injection, schedule: Q04DX003 (ip), vehicle: saline 101 % of control

CN[C@H]1CCc2cc(OC)c(OC)c(OC)c2-c2ccc(O)c(=O)cc21
inactive: dose: 2.5 mg/kg/injection, schedule: Q01DX009 (ip), vehicle: Klucel (hydroxypropylcellulose) (HPC) 103 % of control | dose: 5.0 mg/kg/injection, schedule: Q01DX009 (ip), vehicle: Klucel (hydroxypropylcellulose) (HPC) 100 % of control | dose: 10.0 mg/kg/injection, schedule: Q01DX009 (ip), vehicle: Klucel (hydroxypropylcellulose) (HPC) 99 % of control | dose: 20.0 mg/kg/injection, schedule: Q01DX009 (ip), vehicle: Klucel (hydroxypropylcellulose) (HPC) 93 % of control | dose: 40.0 mg/kg/injection, schedule: Q01DX009 (ip), vehicle: Klucel (hydroxypropylcellulose) (HPC) 92 % of control | dose: 80.0 mg/kg/injection, schedule: Q01DX009 (ip), vehicle: Klucel (hydroxypropylcellulose) (HPC) 108 % of control

CC1(C)CSCC(C)(C)C2(C=CC=CC=N2)C1=O (stereo not drawn)
inactive: [6] 107 % of control | [7] 115 % of control

CC(=O)OC1CCC2C3CCC4=CC(=O)C(C(O)(C(F)(F)F)C(F)(F)F)CC4(C)C3CCC12C (stereo not drawn)
inactive: dose: 100.0 mg/kg/injection, schedule: Q01DX001 (sc), vehicle: steriod suspending solution 100 % of control | dose: 200.0 mg/kg/injection, schedule: Q01DX001 (sc), vehicle: steriod suspending solution 100 % of control | dose: 400.0 mg/kg/injection, schedule: Q01DX001 (sc), vehicle: steriod suspending solution 104 % of control

CN(C)C(=S)S(=O)(=O)c1ccc(Cl)cc1
inactive: dose: 12.5 mg/kg/injection, schedule: Q01DX009 (ip), vehicle: saline with Tween-80 105 % of control | [9] 96 % of control | [1] 119 % of control | [3] 96 % of control | [2] 112 % of control

CCN1C(=O)CC([Se]c2ccccc2)C1=O (stereo not drawn)
inactive: dose: 6.25 mg/kg/injection, schedule: Q04DX003 (ip), vehicle: Klucel (hydroxypropylcellulose) (HPC) 99 % of control and 103 % of control | dose: 12.5 mg/kg/injection, schedule: Q04DX003 (ip), vehicle: Klucel (hydroxypropylcellulose) (HPC) 99 % of control and 102 % of control | dose: 25.0 mg/kg/injection, schedule: Q04DX003 (ip), vehicle: Klucel (hydroxypropylcellulose) (HPC) 100 % of control and 105 % of control | dose: 50.0 mg/kg/injection, schedule: Q04DX003 (ip), vehicle: Klucel (hydroxypropylcellulose) (HPC) 103 % of control and 104 % of control | dose: 100.0 mg/kg/injection, schedule: Q04DX003 (ip), vehicle: Klucel (hydroxypropylcellulose) (HPC) 100 % of control and 104 % of control

O=C1C(Cl)=C(n2c(=O)oc3ccccc32)C(=O)c2ccccc21
inactive: [3] 93 % of control | [4] 98 % of control
